The values that follow come from patent publication US12569170B2, “Paramagnetic sodium NMR macrocyclic-based biosensors, and associated methods” (Yale University, priority 2021, dated 2026).

The nature of assay [1]: Bulk magnetic susceptibility (BMS) contribution to chemical shift in phantoms. The assay is classed as physicochemical. Particulars: phantoms parallel, perpendicular to B0 and spherical. From the text: Upon translation of the present in vitro results to in vivo situations, certain confounding factors must be addressed. In the interstitial space, there are additional cations such as calcium (Ca^2+), magnesium (Mg^2+) and K^+ which will also bind to anionic contrast agents like TmDOTP^5−. However, physiologically their concentrations are low compared to Na^+. […] Additionally, there is a contribution to the chemical shift from bulk magnetic susceptibility (BMS) changes brought about by TmDOTP^5− in addition to the hyperfine shifts induced by interactions with Na^+. Experiments were performed on different DOTP^8− salts in phantoms parallel and perpendicular to the main magnetic field B0, and also spherical phantoms in which there was no BMS contribution. Only a small portion (˜2%) of the total chemical shift for TmDOTP^5− was due to BMS arising due to anisotropy of the paramagnetic susceptibility, and the remainder was the hyperfine shift.

For another assay, the system named is U87-bearing rat brain. In words: In vivo ^23Na-MRSI line broadening in glioma models. Particulars: glioma models, after agent infusion. From the text:
FIGS. 10C-10F illustrates images according to certain embodiments of the disclosure. […] However, the ^23Na linewidth analysis by TmDOTP^5− is confounded by its high ^23Na shiftability. This peak separation in vivo overestimates the full-width at half-maximum (FWHM) calculations and exaggerates the measured ^23Na linewidths.
Slice 1 is most superficial, and slice 3 is the deepest. The tumor outline is depicted in white in all columns.
This establishes GdDOTP^5−-induced ^23Na linewidth broadening as a potential surrogate marker for the altered Na^+ biodistribution within tumors. Thus, in brain tumor models, TmDOTP^5− with ^23Na-NMR can separate Na^+ in intracellular, blood, and interstitial pools, while GdDOTP^5− can distinguish Na^+ within intracellular and extracellular (i.e., blood and interstitial) pools.
Because the majority of the present studies looked at ^23Na chemical shift, the line broadening capabilities of these paramagnetic agents were also interrogated. […] This is due to the high magnetic moment of Gd^3+ which contributes to some degree of anisotropy to the paramagnetic susceptibility. […] Crucially, this family of paramagnetic agents has allowed to insightful probing of the tumor microenvironment and drawing of significant conclusions about tumor aggressiveness based on spectroscopic analysis.

Assay [2] can be described thus: In vitro ^23Na-NMR, two-compartment coaxial cylinder tube (^23Na shiftability). The assay is classed as physicochemical. From the text: The goal of these studies was to separate the total Na^+ signal (Na^+T) into distinct signals for blood (Na^+b), interstitial (Na^+e), and intracellular (Na^+i) pools (FIG. 1). The shifting mechanism induced by exogenous TmDOTP^5− and endogenous biological factors on the ^23Na chemical shift in vitro is depicted in FIGS. 1C-1G. A two-compartment coaxial cylinder NMR tube setup in vitro was used to mimic Na^+ in interstitial/intracellular pools. The inner (smaller) and outer (larger) compartments both contained 150 mM NaCl while the latter also contained TmDOTP^5− at various concentrations. The setup was subjected to several different pH and temperature conditions. The inner compartment, which lacked TmDOTP^5− to represent the intracellular space in vivo, produced a small but unshifted ^23Na peak at 0 ppm. The larger ^23Na peak was shifted downfield by TmDOTP^5−, with the difference in peak integrals stemming from different compartment volumes.
The ^23Na shiftability for TmDOTP^5− s[paraCA^n−]=[…] was 11.1×larger than the shiftability for pH (spH=0.25 ppm/pH unit) and 92.3×larger than the shiftability for temperature (sT=0.03 ppm/° C.). This means that addition of 1.1 mM TmDOTP^5− would induce a ˜3 ppm shift in the ^23Na peak. Conversely, a maximal change of 0.4 in pH units, which is observed between normal and tumor tissues, would induce only a ˜0.1 ppm ^23Na shift. A similar ^23Na shift by temperature would require a 3.3° C. change, which is unlikely in vivo. Based on the pH and temperature ranges observed in vivo (including tumors), the effect from [TmDOTP^5−] dominates the ^23Na chemical shift by 95%. Therefore, [TmDOTP^5−] is several orders of magnitude more sensitive in shifting the ^23Na resonance than typical in vivo factors. Furthermore, the ^23Na shiftability arising from [TmDOTP^5−] and pH/temperature effects is much larger than T2 broadening from TmDOTP^5− (FIG. 1C). […] (FIGS. 1D-1E). However, for in vivo scenarios the ranges shown for pH (2 full pH units) and temperature (15° C. interval) are overestimated, and where [Na^+] far exceeds [TmDOTP^5−] based on prior experiments. In blood and interstitial spaces, [Na^+] is ˜30-100×greater than [TmDOTP^5−].
In vitro experiments were performed using a 2-compartment coaxial cylindrical 7-inch NMR tube setup from WilmadLabGlass (Vineland, NJ, USA). One compartment contained 150 mM NaCl and the other contained the same but with varying amounts of TmDOTP^5− (1-10 mM) and 10% v/v ^2H2O to lock the spectrometer frequency using the ^2H2O signal. NaCl and ^2H2O were purchased from Sigma-Aldrich (St. Louis, MO, USA), and TmDOTP^5− was purchased as the sodium salt Na5TmDOTP from Macrocyclics (Plano, TX, USA). The 5-mm opening of the NMR tube permitted an insert (the inner compartment) whose 50-mm-long tip had inner and outer diameters of 1.258 and 2.020 mm, respectively. The outer-to-inner volume ratio between the two compartments was 8.6. The geometry of the setup allowed 645 μL total in the outer compartment to fill around the tip. Each solution was pH-adjusted using HCl or KOH to give 5 different pH values.
^23Na-NMR spectra were collected on a Bruker Avance III HD 500 MHz vertical-bore spectrometer (Bruker, Billerica, MA, USA) interfaced with Bruker TopSpin v2.1 software. A Bruker 500 MHz TBO liquid broadband probe with z-gradient was used in all frequencies, and an inner coil was used to detect X-nuclei. A single ^23Na square pulse (50 μs) was used to globally excite the volume of interest (repetition time TR=275 ms) collecting 2048 free induction decay (FID) points in the time domain with an acquisition time taq=38.9 ms, averaged 4096 times. Each set of scans was repeated at a series of temperatures: 27, 30, 34, 37, and 40° C. Spectra were analyzed using 10 Hz line broadening (for improved delineation of major peaks and reduction of baseline noise) and manual zeroth- and first-order phasing. […]

“And” between values parts separate entries of the source, which are not always exact repeats. Identical values can stand only once. “Also recorded” adds a separate entry of the source.

For the molecule `O=P([O-])([O-])CN1CCN(CP(=O)([O-])[O-])CCN(CP(=O)([O-])[O-])CCN(CP(=O)([O-])[O-])CC1.[Na+].[Na+].[Na+].[Na+].[Na+].[Tm+3]` [TmDOTP^5−, sodium thulium (III) 1,4,7,10-tetraazacyclododecane-1,4,7,10-tetrakis(methylenephosphonate)], the “portion of the total chemical shift due to BMS” value in assay [1] was ~2%. Further, the “^23Na line broadening in tumor versus normal tissue” value in the assay with U87-bearing rat brain is reported as “most prominent within the tumor; also recorded: substantial ^23Na line broadening within tumor models compared to normal tissue”. For the same molecule, the “^23Na shifts caused by in vivo agent concentrations” value in assay [2] (1-2 mM TmDOTP^5−) is on record as 2.8-5.5 ppm. Besides, the “shift in the ^23Na peak induced by addition of agent” value in assay [2] (addition of 1.1 mM TmDOTP^5−) is ~3 ppm. In assay [2] (in vitro, 150 mM NaCl with TmDOTP^5−), the “^23Na shiftability for pH (spH)” value came to 0.25 ppm/pH unit. In assay [2] (in vitro, 150 mM NaCl with TmDOTP^5−, 27-40° C.), the “^23Na shiftability for temperature (sT)” value is listed as 0.03 ppm/° C. Besides, the “^23Na shift variation caused by pH” value in assay [2] (maximal change of 0.4 pH units between normal and tumor tissue) is on record as ~0.1 ppm. Further, in assay [2] (ratio), the “shiftability for TmDOTP^5− relative to shiftability for pH” value was 11.1 × and the “shiftability for TmDOTP^5− relative to shiftability for temperature” value was 92.3 ×. Besides, the “^23Na shift variation caused by temperature” value in assay [2] (temperature difference ~0.5° C.) stood at 0.015 ppm. The “share of the ^23Na chemical shift dominated by [TmDOTP^5−] effect” value in assay [2] (versus pH and temperature ranges observed in vivo) is 95% and 96-98%.
